The results in this text go back to patent US8338465B2, “Cyclic carboxylic acid rhodanine derivatives for the treatment and prevention of tuberculosis” (priority 2006, dated 2012).

For the first assay, the target named is T1, dihydrolipoamide acyltransferase (DlaT) (Mycobacterium tuberculosis, UniProt P9WIS7).
T1 sequence (P9WIS7 1-553): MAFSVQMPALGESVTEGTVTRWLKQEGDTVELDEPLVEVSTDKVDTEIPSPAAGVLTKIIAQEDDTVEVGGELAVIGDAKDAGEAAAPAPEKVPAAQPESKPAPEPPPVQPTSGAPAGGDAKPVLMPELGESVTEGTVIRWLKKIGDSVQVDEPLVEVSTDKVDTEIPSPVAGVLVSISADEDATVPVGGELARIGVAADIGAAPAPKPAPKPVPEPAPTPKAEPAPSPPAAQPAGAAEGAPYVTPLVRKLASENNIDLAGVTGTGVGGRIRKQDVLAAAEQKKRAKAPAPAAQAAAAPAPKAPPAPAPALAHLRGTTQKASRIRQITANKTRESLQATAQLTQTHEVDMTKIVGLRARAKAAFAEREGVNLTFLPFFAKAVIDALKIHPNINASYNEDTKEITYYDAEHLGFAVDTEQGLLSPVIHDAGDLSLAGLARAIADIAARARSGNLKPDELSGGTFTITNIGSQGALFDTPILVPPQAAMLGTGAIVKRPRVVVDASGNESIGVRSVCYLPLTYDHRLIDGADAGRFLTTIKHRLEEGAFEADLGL
Put plainly: DlaT inhibition (Dlat IC50); DTNB peroxidase assay with Lpd, DlaT and AhpD. The assay is classed as biochemical. As to conditions: Dlat IC50 category.
The term IC50 denotes the concentration that gives 50% inhibition. Consider `CC(C)(C)c1ccc(-c2ccc(C=C3SC(=S)N(Nc4ccccc4C(=O)O)C3=O)o2)cc1` (single isomer, unassigned) [Compound D2, 2-{5-[1-[5-(4-tert-butyl-phenyl)-furan-2-yl]-meth-(E)-ylidene]-4-oxo-2-thioxo-thiazolidin-3-ylamino}-benzoic acid], for which the IC50 is less than 10 µM. In the case of `O=C(O)c1ccccc1NN1C(=O)/C(=C\c2ccc(-c3ccc(N4CCOCC4)cc3)o2)SC1=S` (single isomer, unassigned) [Compound D6, 2-{5-[1-[5-(4-morpholin-4-yl-phenyl)-furan-2-yl]-meth-(E)-ylidene]-4-oxo-2-thioxo-thiazolidin-3-ylamino}-benzoic acid], the half-maximal inhibitory concentration (IC50) was in the range of 11 to 40 µM.

The assay is the same for the next values; noted with them: Table 1, Compounds A1 to A294; read-out: Dlat IC50 category.
`O=C(O)c1cccc(N2C(=O)C(=Cc3ccc(-c4cccc(C(F)(F)F)c4)o3)SC2=S)c1` [Compound A2]: the IC50 was less than 10 µM. In the case of `O=C(O)c1cccc(N2C(=O)C(=Cc3ccc(-c4ccc(Cc5ccccc5)cc4)o3)SC2=S)c1` [Compound A3], the IC50 is less than 10 µM. Take `O=C(O)c1cccc(N2C(=O)C(=Cc3ccc(-c4cccc(Cl)c4)o3)SC2=S)c1` [Compound A4]: the half-inhibitory concentration (IC50) fell in the range of 11 to 40 µM. For the compound `O=C(O)c1cccc(N2C(=O)C(=Cc3cccc(-c4ccccc4Cl)n3)SC2=S)c1` [Compound A5], the IC50 is greater than 41 µM. Same read-out and setting: next, `NS(=O)(=O)c1ccc(N2C(=O)C(=Cc3ccc(-c4ccccc4Cl)o3)SC2=S)cc1` [Compound A6]: 11 to 40 µM; `O=C(O)c1cccc(N2C(=O)C(=Cc3ccc(-c4ccc(Cl)c(Cl)c4)o3)SC2=S)c1` [Compound A7]: less than 10 µM; `O=C(O)c1ccc(N2C(=O)C(=Cc3ccc(-c4ccc(Cl)c(Cl)c4)o3)SC2=S)cc1` [Compound A8]: less than 10 µM. For the compound `NS(=O)(=O)c1ccc(N2C(=O)C(=Cc3ccc(-c4ccc(Cl)c(Cl)c4)o3)SC2=S)cc1` [Compound A9], the IC50 was 11 to 40 µM. As for `O=C(O)c1ccc(N2C(=O)C(=Cc3ccc(-c4cccc(C(F)(F)F)c4)o3)SC2=S)cc1` [Compound A10], the IC50 lay in the range of 11 to 40 µM. The same measure, in the same setting: next, `O=C(O)c1ccc(N2C(=O)C(=Cc3ccc(-c4ccc(Cc5ccccc5)cc4)o3)SC2=S)cc1` [Compound A11]: 11 to 40 µM.

Turning to `NS(=O)(=O)c1ccc(N2C(=O)C(=Cc3ccc(-c4ccc(Cc5ccccc5)cc4)o3)SC2=S)cc1` [Compound A12], the IC50 was 11 to 40 µM. Same read-out and setting: next, `O=C(O)c1cccc(N2C(=O)C(=Cc3ccc(-c4ccc(Oc5ccccc5)cc4)o3)SC2=S)c1` [Compound A13]: less than 10 µM; `O=C(O)c1ccc(N2C(=O)C(=Cc3ccc(-c4ccc(Oc5ccccc5)cc4)o3)SC2=S)cc1` [Compound A14]: 11 to 40 µM.

With `NS(=O)(=O)c1ccc(N2C(=O)C(=Cc3ccc(-c4ccc(Oc5ccccc5)cc4)o3)SC2=S)cc1` [Compound A15], the IC50 is greater than 41 µM. As to `O=C(O)c1ccc(N2C(=O)C(=Cc3ccc(-c4ccccc4Cl)o3)SC2=S)cc1` [Compound A16], the IC50 was greater than 41 µM. On to `NS(=O)(=O)c1ccc(N2C(=O)C(=Cc3ccc(-c4ccc(Cl)cc4)o3)SC2=S)cc1` [Compound A17], for which the IC50 lay in the range of 11 to 40 µM. In the case of `NS(=O)(=O)c1ccc(N2C(=O)C(=Cc3ccc(-c4cccc(C(F)(F)F)c4)o3)SC2=S)cc1` [Compound A18], the IC50 lay in the range of 11 to 40 µM.

With `NS(=O)(=O)c1ccc(N2C(=O)C(=Cc3ccc(-c4cccc(Cl)c4)o3)SC2=S)cc1` [Compound A19], the IC50 is 11 to 40 µM. The same measure, in the same setting: next, `O=C(O)c1ccc(N2C(=O)C(=Cc3ccc(-c4ccc(Cl)cc4)o3)SC2=S)cc1` [Compound A20]: less than 10 µM. As to `O=C(O)c1cccc(N2C(=O)C(=Cc3ccc(-c4ccc(Cl)cc4)o3)SC2=S)c1` [Compound A21], the IC50 is less than 10 µM. Same read-out and setting: next, `O=C1C(=Cc2ccc(-c3ccccc3Cl)o2)SC(=S)N1c1ccc(O)cc1` [Compound A22]: less than 10 µM; `O=C1C(=Cc2ccc(-c3cccc(C(F)(F)F)c3)o2)SC(=S)N1c1ccc(O)cc1` [Compound A23]: less than 10 µM; `O=C1C(=Cc2ccc(-c3ccc(Cl)cc3)o2)SC(=S)N1c1ccc(O)cc1` [Compound A24]: less than 10 µM.

As for `NS(=O)(=O)c1cccc(N2C(=O)C(=Cc3ccc(-c4ccccc4Cl)o3)SC2=S)c1` [Compound A25], the IC50 was in the range of 11 to 40 µM. As to `NS(=O)(=O)c1cccc(N2C(=O)C(=Cc3ccc(-c4cccc(C(F)(F)F)c4)o3)SC2=S)c1` [Compound A26], the IC50 is 11 to 40 µM.

`NS(=O)(=O)c1cccc(N2C(=O)C(=Cc3ccc(-c4ccc(Cl)cc4)o3)SC2=S)c1` [Compound A27]: the IC50 was less than 10 µM. As to `O=C(O)c1cccc(N2C(=O)C(=Cc3cc(-c4cccc(C(F)(F)F)c4)co3)SC2=S)c1` [Compound A28], the 50% inhibitory concentration (IC50) is less than 10 µM. Same read-out and setting: next, `O=C(O)c1ccc(N2C(=O)C(=Cc3cc(-c4cccc(C(F)(F)F)c4)co3)SC2=S)cc1` [Compound A29]: 11 to 40 µM; `CC(=O)NS(=O)(=O)c1ccc(N2C(=O)C(=Cc3ccc(-c4ccc(Cl)c(Cl)c4)o3)SC2=S)cc1` [Compound A30]: less than 10 µM.

Take `CC(=O)NS(=O)(=O)c1ccc(N2C(=O)C(=Cc3ccc(-c4cccc(C(F)(F)F)c4)o3)SC2=S)cc1` [Compound A31]: the IC50 was less than 10 µM. For `O=C(O)c1cc(N2C(=O)C(=Cc3ccc(-c4cccc(C(F)(F)F)c4)o3)SC2=S)ccc1O` [Compound A32], the IC50 was less than 10 µM. Turning to `O=C(O)c1cc(N2C(=O)C(=Cc3ccc(-c4ccccc4Cl)o3)SC2=S)ccc1O` [Compound A33], the IC50 was less than 10 µM. Take `O=C(O)c1cc(N2C(=O)C(=Cc3ccc(-c4ccc(Cl)cc4)o3)SC2=S)ccc1O` [Compound A34]: the IC50 is less than 10 µM.

In the case of `O=C(O)c1cccc(N2C(=O)C(=Cc3ccc(-c4ccc(Cl)cc4Cl)o3)SC2=S)c1` [Compound A35], the IC50 was 11 to 40 µM. Consider `O=C(O)c1cccc(N2C(=O)C(=Cc3ccc(-c4cc(Cl)ccc4Cl)o3)SC2=S)c1` [Compound A36], for which the IC50 is less than 10 µM. With `CC(=O)NS(=O)(=O)c1cccc(N2C(=O)C(=Cc3ccc(-c4ccccc4Cl)o3)SC2=S)c1` [Compound A37], the half-maximal inhibitory concentration (IC50) lay in the range of 11 to 40 µM.

Consider `CC(=O)NS(=O)(=O)c1cccc(N2C(=O)C(=Cc3ccc(-c4cccc(C(F)(F)F)c4)o3)SC2=S)c1` [Compound A38], for which the IC50 is less than 10 µM. Take `O=C(O)c1cccc(N2C(=O)C(=Cc3ccc(-c4c(Cl)cccc4Cl)o3)SC2=S)c1` [Compound A39]: the half-inhibitory concentration (IC50) is 11 to 40 µM.

Regarding `O=C(O)c1cc(N2C(=O)C(=Cc3ccc(-c4ccc(Cl)cc4Cl)o3)SC2=S)ccc1O` [Compound A40], the IC50 was 11 to 40 µM. As for `O=C(O)c1cc(N2C(=O)C(=Cc3ccc(-c4cc(Cl)ccc4Cl)o3)SC2=S)ccc1O` [Compound A41], the concentration for half-maximal inhibition (IC50) was 11 to 40 µM. In the case of `O=C(O)c1cc(N2C(=O)C(=Cc3ccc(-c4c(Cl)cccc4Cl)o3)SC2=S)ccc1O` [Compound A42], the IC50 lay within 11 to 40 µM.

As to `O=C(O)c1cccc(N2C(=O)C(=Cc3ccc(-c4cc(C(F)(F)F)ccc4Cl)o3)SC2=S)c1` [Compound A44], the IC50 was less than 10 µM. Same read-out and setting: next, `O=C(O)COc1ccc(N2C(=O)C(=Cc3ccc(-c4ccc(Cl)cc4)o3)SC2=S)cc1` [Compound A45]: 11 to 40 µM; `CC(C)c1ccc(-c2ccc(C=C3SC(=S)N(c4cccc(C(=O)O)c4)C3=O)o2)cc1` [Compound A46]: less than 10 µM. Same read-out and setting: next, `CC(C)c1ccc(-c2ccc(C=C3SC(=S)N(c4ccc(O)c(C(=O)O)c4)C3=O)o2)cc1` [Compound A47]: less than 10 µM.

For `O=C(O)c1cccc(N2C(=O)C(=Cc3ccc(-c4ccc(C(=O)c5ccccc5)cc4)o3)SC2=S)c1` [Compound A48], the IC50 was less than 10 µM. Take `O=C1C(=Cc2ccc(-c3ccccc3Cl)o2)SC(=S)N1c1cccc(O)c1` [Compound A49]: the IC50 was in the range of 11 to 40 µM. `O=C1C(=Cc2ccc(-c3cccc(C(F)(F)F)c3)o2)SC(=S)N1c1cccc(O)c1` [Compound A50]: the IC50 fell in the range of 11 to 40 µM. On to `O=C1C(=Cc2ccc(-c3ccc(Cl)cc3)o2)SC(=S)N1c1cccc(O)c1` [Compound A51], for which the IC50 was in the range of 11 to 40 µM. Consider `CC(C)c1ccc(-c2ccc(C=C3SC(=S)N(c4cccc(O)c4)C3=O)o2)cc1` [Compound A52], for which the IC50 was 11 to 40 µM. Consider `O=C(O)c1cccc(N2C(=O)C(=Cc3ccc(-c4ccc(CSc5ccccc5)cc4)o3)SC2=S)c1` [Compound A53], for which the IC50 is 11 to 40 µM.

For `CC(C)c1cccc(-c2ccc(C=C3SC(=S)N(c4cccc(C(=O)O)c4)C3=O)o2)c1` [Compound A54], the IC50 is less than 10 µM. Consider `CC(C)c1cccc(-c2ccc(C=C3SC(=S)N(c4cccc(O)c4)C3=O)o2)c1` [Compound A55], for which the IC50 lay in the range of 11 to 40 µM. In the case of `O=C(O)c1cccc(N2C(=O)C(=Cc3ccc(-c4ccc(C5CCCCC5)cc4)o3)SC2=S)c1` [Compound A56], the IC50 was less than 10 µM. Turning to `O=C(O)c1cc(N2C(=O)C(=Cc3ccc(-c4ccc(C5CCCCC5)cc4)o3)SC2=S)ccc1O` [Compound A57], the half-maximal inhibitory concentration (IC50) was less than 10 µM. As for `CC(C)(C)c1ccc(-c2ccc(C=C3SC(=S)N(c4cccc(C(=O)O)c4)C3=O)o2)cc1` [Compound A58], the IC50 was less than 10 µM.

Staying with this assay, now noted: read-out: Dlat IC50 category.
Consider “2-{5-[2-(2-Chloro-benzyloxy)-benzylidene]-4-oxo-2-thioxo-thiazolidin-3-ylamino}-benzoic acid [Compound D32]”, for which the IC50 is less than 10 µM.
